Source: patent US11261232B2, “TNFRSF14 / HVEM proteins and methods of use thereof” (MEMORIAL SLOAN KETTERING CANCER CENTER, priority 2015, dated 2022)

B1: sTNFRSF14: Pro37-Val202 soluble HVEM ectodomain polypeptide of SEQ ID NO. 6 (protein, listed as Homo sapiens)
chain: PALPSCKEDEYPVGSECCPKCSPGYRVKEACGELTGTVCEPCPPGTYIAHLNGLSKCLQCQMCDPAMGLRASRNCSRTENAVCGCSPGHFCIVQDGDHCAACRAYATSSPGQRVQKGGTESQDTLCQNCPPGTFSPNGTLEECQHQTKCSWLVTKAGAGTSSSHWV

Experiments:
[1] = system: human and mouse lymphoma cell lines; experiment: Cell proliferation in panel of BTLAhi and BTLAlo lymphoma cell lines; format: cell-based
Method: FIG. 7A-H. The solHVEM (either Leu39-Va1202 or Pro37-Va1202) protein restores tumor suppressive effects of HVEM.
FIG. 17. sTNFRSF14 inhibits the growth of lymphoma cell lines in vitro. Three lymphoma cell lines (Myc-Bc12, LY-10, Granta) were plated at 1×10^5 cells/ml and were treated with sTNFRSF14 (5 ug/ml) or vehicle each day for 72 hours. After 72 hours cells were counted using a hemocytometer. Each bar represents the average of three independent experiments.
Building on these findings, experiments were performed to test whether solHVEM would have any single agent activity against lymphomas. First, the expression of the BTLA receptor was characterized across a panel of human and mouse lymphoma (mostly DLBCL) cell lines. […] Next, experiments were performed to test if solHVEM had any effect on established BTLA^hi lymphomas in vivo. Briefly, aggressive MYC/BCL2 double positive murine lymphoma cells that express BTLA (BTLA^hi) were transplanted into the flanks of J:Nu nude mice and mice were treated with 20 μg of solHVEM or vehicle (PBS) every three days for a total four times once the engrafted tumors reached a volume of ˜50 mm3. […] Similar results were obtained both in vitro and in vivo with a different soluble HVEM molecule consisting of the extracellular region from amino acids Pro37 to Va1202 (SEQ ID NO. 6).
Lymphoma cell lines DoHH2, Ly-10, Granta, Su-DHL-6 were maintained in RPMI 1640 with 10% fetal bovine serum, 1% L-Glutamine and 1% penicillin/streptomycin. Mouse lymphoma cell line myc-bcl2 was maintained in IMDM-DMEM (50:50) with 10% fetal bovine serum, 1% L-Glutamine, and 1% penicillin/streptomycin. Cell lines were seeded at 5×10^5/mL and were treated with 5 m/m1 of sHVEM. After 24 hours cell number was counted using hemocytometer for a total of 72 hours after treatment.

purified human TFH cells = experiment: TFH stimulation: viability and cytokine expression; format: cell-based
Description: FIG. 6A-I. Increased TFH cell recruitment supports to HVEM deficient lymphoma B cells. FIG. 6A, FACS identification and sorting of human GC derived TFH cells based on the markers CD3pos, CD4pos, CD25neg, PD1hi, CXCRShi, left: isotypic control; right; staining with anti-BTLA antibody; FIG. 6B and FIG. 6C, FACS measurement (FIG. 6B) and quantification (FIG. 6C) of intra-tumoral TFH cells in control and HVEM deficient murine lymphomas; FIG. 6D and FIG. 6E, qRT-PCR measurement of IL21 (FIG. 6D), and IL4 (FIG. 6E) in sorted intra-tumoral T cells (N=?); FIG. 6F, qRT-PCR measurement of the LTa, LTb, and TNFa mRNA expression in T cells isolated from the spleens of vector and shHVEM mice * p<?; G-I, qRT-PCR measurement of TNFa (FIG. 6G), LTa (FIG. 6H), and LTb (FIG. 61) in cell sorted TFH (n=4) cultured with anti-CD3/anti-CD28 Mabs in presence or not of soluble HVEM (solHVEM, 10 μg/ml), each symbol represents an independent TFH sample.
FIG. 13A-E. Analysis of TFH cell function in HVEM deficient lymphomas. FIG. 13A and FIG. 13B, qRT-PCR measurement of the receptors for IL21 (IL-21ra; A), and IL4 (IL4ra; B) in purified lymphoma B cells; FIG. 13C, Viability of purified murine TFH cells (samples: n=4) that were cultured for 3 days with or without (UN) stimulation by anti-CD3/anti-CD28 in the presence or absence of the soluble HVEM ectodomain (solHVEM: 10 μg/ml); FIG. 13D, Cell-Sorted GC-TFH cultured with anti-CD3/anti-CD28 Mabs in presence or not of solHVEM; production of CXCL13(FIG. 13E) and IL-21(FIG. 13F) evaluated by ELISA.
The stroma-derived cytokine CXCL13 is the main chemo-attractant for CXCRSpos follicular T helper cells (TFH) (Crotty, 2014). […] This increase in TFH cell numbers is associated with an elevated expression of the TFH derived cytokines. […] Further, it was observed that the increased production of IL21 and IL4 by TFH cells was matched with an elevated expression of the IL21 and IL4 receptors on FACS purified lymphoma B cells from HVEM deficient lymphomas (p<0.01) (FIGS. 13A and 13B). Human TFH cells are characterized by high-level expression of the BTLA receptor (FIG. 13C) and experiments were performed to test whether HVEM directly affected these tumor infiltrating T cells. […]
Purified TFH were cultured in IMDM 10% FCS with or without anti-CD3 (0.6 μg/mL) and anti-CD28 (0.6 m/mL, Pelicluster Sanquin) MAbs in the presence or not of solHVEM (10 μg/mL). After 3 days of culture, the number of viable TFH was evaluated by flow cytometry using count beads (Flow Count, Beckman Coulter) and Topro-3 staining (Invitrogen). CXCL13 was quantified in culture supernatants by ELISA (R&D Systems) according to manufacturer's instructions.

[2] = with or without anti-CD3/anti-CD28, solHVEM 10 μg/mL, 3 days

Row | Molecule | growth of BTLAhi lymphoma cells ([1]; BTLAhi lines (DOHH2, SU-DHL6, murine MYC/BCL2), 5 μg/ml) | growth of BTLAlo lymphoma cells ([1]; BTLAlo lines (Granta, Su-DHL10), 5 μg/ml) | expression of LTa in TFH cells (purified human TFH cells; solHVEM 10 μg/ml) | expression of LTb in TFH cells (purified human TFH cells; solHVEM 10 μg/ml) | TFH cell numbers (purified human TFH cells; [2]) | TFH cell viability (purified human TFH cells; [2]) | cell growth in cell lines that did not express BTLA ([1]; 5 ug, three days) | cell growth in cell lines with highest BTLA levels ([1]; Myc-Bc12 cell line, 5 ug, three days)
1 | solHVEM: Leu39-Val202 soluble HVEM ectodomain polypeptide of SEQ ID NO. 8 | significant growth inhibition | not affected | reductions | reductions | did not affect | did not affect |  | 
2 | B1 |  |  |  |  |  |  | did not inhibit cell growth | largest effect on growth
